Assay results as given in US20100143886A1, “IN VIVO HCV RESISTANCE TO ANTI-VIRAL INHIBITORS” (priority 2007, published 2010).
“Also recorded” adds a separate entry of the source.

Legend:
HCV genotype 1a = assay: Viral load by commercial RT-TaqMan assay, chimpanzees dosed with Compound B (Example 1); assay type: in vivo, chimpanzee; conditions: two chimpanzees, oral 5 mg per kg b.i.d. for 7 days; level of quantitation 20 IU/ml
Protocol: Two chimpanzees chronically infected with HCV genotype 1a from a human were orally dosed with Compound B (a NS3 protease inhibitor) for 7 days at 5 mg per kg b.i.d. Plasma samples were collected prior, during, and after the dosing regimen, with viral load determined by a commercial viral load assay (RT-TaqMan, level of quantitation 20 IU/ml, Cenetron Diagnostics, Austin, Tex. 78758).

HCV genotype 3a = assay: Viral load by commercial RT-TaqMan assay, chimpanzee dosed with Compound A (Example 3); assay type: in vivo; conditions: 2 mg per kg IV for 7 days, level of quantitation 20 IU/ml
Protocol: A chimpanzee infected with a HCV genotype 3a from a human was dosed with Compound A (a N5B polymerase inhibitor) for 7 days at 2 mg per kg IV. Plasma samples were collected prior, during, and after the dosing regimen, with viral load determined by a commercial viral load assay (RT-TaqMan, level of quantitation 20 IU/ml, Cenetron Diagnostics, Austin, Tex. 78758).

SMILES | viral load suppression (HCV genotype 1a) | viral load suppression (HCV genotype 3a)
CC[C@@H]1C[C@]1(NC(=O)[C@@H]1C[C@@H]2CN1C(=O)[C@H](C(C)(C)C)NC(=O)OCC(C)(C)CCCCc1cccc3c1CN(C3)C(=O)O2)C(=O)NS(=O)(=O)C1CC1 [Compound B] | below quantifiable levels; also recorded: below the limit of quantitation (BLQ) | 
C[C@@]1(O)[C@H](O)[C@@H](CO)O[C@H]1n1ccc2c(N)ncnc21 [Compound A] |  | below the limit of quantitation (BLQ); also recorded: below quantifiable levels
